Reference: patent US4230879A, “15-Deoxy-16-hydroxy-16-formyo or dimethoxy-methyl-prostane derivatives of the E and F series” (American Cyanamid Company, priority 1979, dated 1980)

Tested on: Histamine
Test: KONZETT (Histamine)
Type: in vivo
Details: spasmogen histamine

CCCCC(O)(C=O)C/C=C/[C@H]1[C@H](O)CC(=O)[C@@H]1CCCCCCC(=O)O (relative stereo) [dl-11α,16α/β-dihydroxy-9-oxo-16-formyl-13-trans-prostenoic acid]
ED50: 8.89 µg/kg
